The supplement of paper PMC10307832

Assays:
Assay in all cases: relative viability (nuclei count vs DMSO), 5 days (fraction); higher = more cells survive
[1] = compound: CCC1=CN=CN=C1N2CCN(CC2)CC3=NC4=C(N3)C=C(C=C4)C(F)(F)F + CC(=O)Nc1cccc(-n2c(=O)n(C3CC3)c(=O)c3c(Nc4ccc(I)cc4F)n(C)c(=O)c(C)c32)c1 [Trametinib] (partner 0.02 µM)
How it was run: (§1)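 Lung cancer cell lines in 1536-well plates got either a single drug or a fixed anchor-drug dose together with five library-drug doses (not always all listed) in √10 steps, by pin tool, on the day after seeding. Nuclei were counted after 5 days, and relative viability is the treated-to-vehicle ratio of nuclei counts. Values are medians of duplicate plates.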

Mirin + Phenformin = compound: N=C1NC(=O)/C(=C/c2ccc(O)cc2)S1 [Mirin] + N=C(N)NC(=N)NCCc1ccccc1 [Phenformin] (partner 250 µM)
How it was run: as §1

[2] = compound: CCn1c(-c2nonc2N)nc2cnc(Oc3cccc(NC(=O)c4ccc(OCCN5CCOCC5)cc4)c3)cc21 + Cc1nc(NC(=O)N2CCC[C@H]2C(N)=O)sc1-c1ccnc(C(C)(C)C(F)(F)F)c1 [Alpelisib] (partner 2 µM)
How it was run: as §1

[3] = compound: CCC1=CN=CN=C1N2CCN(CC2)CC3=NC4=C(N3)C=C(C=C4)C(F)(F)F + CS(=O)(=O)N1CCN(Cc2cc3nc(-c4cccc5[nH]ncc45)nc(N4CCOCC4)c3s2)CC1 [Pictilisib] (partner 1 µM)
How it was run: as §1

Cell Line	relative viability ([1]; first compound 0.04 µM)	relative viability ([1]; first compound 0.1265 µM)	relative viability ([1]; first compound 0.4 µM)	relative viability ([1]; first compound 1.265 µM)	relative viability ([1]; first compound 4 µM)	relative viability (Mirin + Phenformin; first compound 0.25 µM)	relative viability (Mirin + Phenformin; first compound 0.7906 µM)	relative viability (Mirin + Phenformin; first compound 2.5 µM)	relative viability (Mirin + Phenformin; first compound 7.906 µM)	relative viability (Mirin + Phenformin; first compound 25 µM)	relative viability ([2]; first compound 0.04 µM)	relative viability ([2]; first compound 0.1265 µM)	relative viability ([2]; first compound 0.4 µM)	relative viability ([2]; first compound 1.265 µM)	relative viability ([2]; first compound 4 µM)	relative viability ([3]; first compound 0.04 µM)	relative viability ([3]; first compound 0.1265 µM)	relative viability ([3]; first compound 0.4 µM)	relative viability ([3]; first compound 1.265 µM)	relative viability ([3]; first compound 4 µM)
201T	0.725	0.73	0.747	0.711	0.694	0.463	0.494	0.454	0.463	0.568	1.02	1.01	0.966	1.05	0.954	0.708	0.652	0.658	0.514	0.801
A549						0.129	0.138	0.159	0.189	0.235	0.986	0.785	0.426	0.23	0.0785	0.547	0.488	0.467	0.507	0.426
A-427	0.631	0.731	0.675	0.615	0.637	0.311		0.363	0.266	0.348	1.22	1.13	1.04	1.1	0.998	0.675	0.685	0.682	0.637	0.574
ABC-1						0.263	0.21	0.269	0.257	0.206	1.35	0.691	0.877	0.877	0.487	0.587	0.955	0.69	0.665	0.646
BEN	1.09	1.18	0.975	0.742	0.709	0.255	0.288	0.266	0.248	0.273	1.06	1.03	0.787	0.326	0.329	0.593	0.557	0.503	0.343	0.331
CAL-12T	0.256	0.352	0.356	0.267	0.37	0.627		0.665	0.591	0.657	1.75	1.49	1.51	1.23	0.786		0.541	0.295	0.314	0.361
COR-L23	0.569	0.682	0.524	0.47	0.583	0.465	0.46	0.45	0.469	0.481	0.681	0.647	0.446	0.154	0.159	0.696	0.71	0.676	0.632	0.769
COR-L 105	0.42	0.418	0.501	0.416	0.44	0.551	0.495	0.479	0.583	0.462	1.08	0.694	0.938	0.596	0.459	0.372	0.376	0.385	0.247	0.464
Calu-6											0.861	0.827	0.582	0.477	0.455	1.07	0.877	0.865	0.822	0.73
ChaGo-K-1	0.93	0.894	0.821	0.869	0.859	0.485	0.428	0.49	0.423	0.324							0.707	0.63	0.668	0.557
EBC-1											1.02	0.767	0.678	0.733	0.557	0.459	0.318	0.333	0.261	0.352
EKVX	0.415	0.384	0.379	0.32	0.309	0.251	0.238	0.246	0.224	0.258	1.16	0.83	0.883	0.764	0.837	0.395	0.388	0.373	0.307	0.444
EMC-BAC-2		0.857	0.841	0.891	0.951	0.57	0.57	0.559	0.401	0.49	0.872	0.732	0.8	0.729	0.75	0.571	0.491	0.479	0.349	0.608
EPLC-272H	0.289	0.26	0.32	0.284	0.325	0.354		0.307	0.254	0.234	1.11	0.963	0.892	0.933	0.973	0.305	0.285	0.287	0.302	0.284
H3255	0.639	0.583	0.572	0.522	0.599	0.33	0.379	0.408	0.271	0.361	1.08	0.622	0.622	0.583	0.594	0.5	0.507	0.446	0.423	0.455
HARA	0.879	0.76	0.454	0.472	0.716	0.536		0.467	0.475	0.36	0.831	0.797	0.756	0.395	0.485	0.311	0.326	0.321	0.302	0.471
HCC-15	0.36	0.392	0.372	0.368	0.369	0.495	0.478	0.446	0.431	0.426	1.03	0.831	0.953	0.867	0.845	0.667	0.676	0.677	0.532	0.805
HCC-44	1.06	0.994	1.02	0.963	0.915	0.165	0.102	0.126	0.213	0.314	0.816	0.896	0.659	0.456	0.344	0.584	0.593	0.557	0.477	0.596
HCC-78	0.843	0.712	0.628	0.577	0.562	0.661	0.616	0.867	0.571	0.793	0.494	0.336	0.429	0.487	0.455	0.143	0.299	0.203	0.206	0.178
HCC-366	0.344	0.372	0.349	0.285	0.269	0.627		0.718	0.601	0.583	0.462	0.429	0.21	0.0494	0.031	0.242	0.124	0.133		0.134

Cell Line	relative viability ([1]; first compound 0.04 µM)	relative viability ([1]; first compound 0.1265 µM)	relative viability ([1]; first compound 0.4 µM)	relative viability ([1]; first compound 1.265 µM)	relative viability ([1]; first compound 4 µM)	relative viability (Mirin + Phenformin; first compound 0.25 µM)	relative viability (Mirin + Phenformin; first compound 0.7906 µM)	relative viability (Mirin + Phenformin; first compound 2.5 µM)	relative viability (Mirin + Phenformin; first compound 7.906 µM)	relative viability (Mirin + Phenformin; first compound 25 µM)	relative viability ([2]; first compound 0.04 µM)	relative viability ([2]; first compound 0.1265 µM)	relative viability ([2]; first compound 0.4 µM)	relative viability ([2]; first compound 1.265 µM)	relative viability ([2]; first compound 4 µM)	relative viability ([3]; first compound 0.04 µM)	relative viability ([3]; first compound 0.1265 µM)	relative viability ([3]; first compound 0.4 µM)	relative viability ([3]; first compound 1.265 µM)	relative viability ([3]; first compound 4 µM)
HCC-827	0.483	0.51	0.544	0.497	0.553	0.415	0.362	0.401	0.403	0.428	1.11	0.973	0.996	1.07	0.947	0.978	1.04	1.03	0.957	0.994
HOP-62	0.424	0.378	0.373	0.346	0.355	0.608	0.707	0.726	0.596	0.723	1.11	1.01	0.925	0.824	1.01	0.661	0.669	0.705	0.642	0.76
IA-LM											1.17	0.929	0.871	0.825	0.687	0.409	0.33	0.323	0.325	0.3
LC-2-ad	0.976	0.814	0.938	0.921	0.871	0.624	0.498	0.589	0.47	0.416	0.945	0.542	0.797	0.658	0.515	0.459	0.512	0.424	0.328	0.326
LCLC-97TM1	0.195	0.164	0.183	0.238	0.2	0.445	0.515	0.439	0.36	0.53	0.276	0.236		0.3	0.305	0.181	0.198	0.181	0.204	0.214
LCLC-103H	0.724	0.731	0.673	0.683	0.639	0.342	0.345	0.324	0.387	0.358	1.2	0.935	0.961	1.11	1.03	0.599	0.614	0.499	0.435	0.559
LK-2	0.854	0.727	0.666	0.452	0.567	0.408		0.363	0.203	0.167	1.39	1.2	1.1	0.282	0.512	0.575	0.462	0.436	0.42	0.56
LOU-NH91	0.782	0.768	0.789	0.727	0.817	0.718	0.671	0.703	0.668	0.856	0.759	0.619	0.652	0.55	0.566	0.501	0.533	0.54	0.47	0.551
LU99A	0.558	0.57	0.505	0.481	0.578	0.839	0.687	0.882	0.762	0.766	0.769	0.642	0.447	0.51	0.46	0.369	0.287	0.363	0.346	0.321
LXF-289	0.709	0.696	0.659	0.684	0.67	0.543	0.589	0.546	0.511	0.548	1.1	1.12	1	0.96	0.941	0.744	0.793	0.762	0.646	0.754
NCI-H522	0.797	0.848	0.761	0.692	0.795	0.608	0.621	0.6	0.574	0.559										
NCI-H1299											0.991	0.891	0.836	0.912	0.861	0.819	0.728	0.972	0.752	0.673
NCI-H1563						0.668	0.76	0.67	0.703	0.657	0.96	0.878	0.825	0.766	0.712	0.643	0.684	0.65	0.616	0.698
NCI-H1623						0.562	0.383	0.577	0.459	0.48										
NCI-H1648	0.555			0.391	0.519															
NCI-H1650	0.499	0.707	0.573	0.499	0.672	0.39	0.456	0.435	0.423	0.295						0.525	0.586	0.558	0.306	0.818
NCI-H1703											0.385	0.428	0.254	0.209	0.164	0.238	0.277	0.263	0.232	0.227
NCI-H2342	0.748	0.906	0.826	0.503	0.511	0.724	0.559	0.658	0.37	0.48										
SW 900	0.545	0.679	0.857		0.7	0.732	0.654	0.488	0.597	0.629										
